Consider three compounds from the SangsterLogP compilation.

The logD is lipophilicity at a set pH, counting ionised and neutral species. High values mean higher lipophilicity, low ones lower lipophilicity.

This data set is described as follows: method code SF-AS, from DOI: 10.1021/jm00089a008, PMID: 1317921. Particulars: pH 7.4.

As for `CC(C)N(/C=N/c1ccn([C@H]2CC[C@@H](CO)O2)c(=O)n1)C(C)C`, the logD was determined as 0.72.

Take `CC(C)N(/C=N/c1ccn([C@H]2C[C@H](F)[C@@H](CO)O2)c(=O)n1)C(C)C`: the logD was 1.14.

In the case of `O=c1nc(/N=C/N2CCOCC2)ccn1C1CC(F)C(CO)O1` (stereo not drawn), the logD is -0.68.
